Test [1] addresses T1, 5-HT2A receptor (Homo sapiens, UniProt P28223). The experiment in a line: 5-HT2A receptor isotope competition affinity assay. As to conditions: competition with [3H]-Ketanserin, 1 hour, room temperature; read-out: 5-HT2A receptor/Ki. It is filed as binding. The procedure:
A radiolabeled ligand (agonist or antagonist) incubated with receptor protein could form a receptor-ligand complex. An added test compound could compete with the isotopically labeled ligand for the receptor binding, eventually forming a relative steady-state equilibrium. The affinity of the test compound for the receptor was indirectly evaluated by measuring the dissociation of the isotopically labeled ligand from the receptor.
A 100x serial gradient dilution of compounds was prepared in DMSO, starting from 1 mM with 4-fold serial dilutions, resulting in 10 concentration points. Using a pipettor, 1 µL of each gradient concentration of the test compound (final concentration starting at 10 µM, 4-fold serial dilutions, 10 concentration points) was transferred to a 96-well assay plate, to each well of which 49 µL of 5-HT2A receptor protein (102 µg/mL, prepared in an assay buffer: 50 mM Tris-HCl, pH 7.4) had been added in advance (final concentration 5 µg/well). This was followed by the addition of 50 µL of isotopically labeled [^3H]-Ketanserin (2 nM, 2× final concentration, prepared in the assay buffer). The plate was sealed and incubated on a shaker at room temperature for 1 hour. The reaction mixture was filtered through a Unifilter-96 GF/C filter plate pre-treated with 0.3% PEI. The filter plate was washed with a precooled (4°C) assay buffer and then dried in an incubator at 50°C. A scintillation liquid was added, and the plate was read using a MicroBeta2 instrument. The percentage inhibition was calculated using the equation: %Inhibition=(CountHigh Signal Control-CountSample)/(CountHigh Signal Control-CountLow Signal Control)*100. A four-parameter logistic fit was used to calculate the IC50 value. High Signal Control: No compound group (the same volume of DMSO substituted). Low Signal Control: Ketanserin group (non-isotopically labeled, 2× final concentration). Table 1: Results of 5-HT2A receptor isotope competition affinity assay, Ki Values

Test [2] has as its system Mice (strain C57BL/6). The experiment in a line: Head-twitch response test in mice. The class given is in vivo. As to conditions: dose 30 mpk; reflects hallucinogenic effect; Figure 1. The method, then: (§1) • 1. Assay conditions and materials: • 1.1 Animal source: Mice (strain C57BL/6, purchased from Shanghai Lingchang Biotechnology Co., Ltd., 8-9 weeks old, 20-24 grams, male) • 1.2 Conditions: Temperature (20-25°C), relative humidity (40-70%), light cycle (12-hour light cycle (7:00-19:00)), free access to food and water • 1.3 Marking: Animals were marked on the tail. • 2. Assay procedure:
• A) Adaptation: Starting from the second day after the animals arrived, they were conciliated by stroking and acclimated for seven consecutive days to reduce their stress response. • B) Grouping: One hour before the assay test, animals were placed in the testing room for adaptation. On the test day, animals were randomly grouped according to body weight. Each group contained 12 animals. • C) Assay Dosing: Animal body weight was measured, and compounds were administered according to the group, with a dosing volume of 10 mL/kg for all. • D) Testing: After dosing, animals were placed in transparent observation chambers, and head-twitch behaviors were recorded over 60 minutes. • E) Assay test indicator: Total number of head-twitches within 60 minutes after dosing.

The test system of test [3] is Mice (strain C57BL/6). The experiment in a line: Forced swim test in naive mice 7 days after single administration. The note with it: compared to vehicle control group, p<0.05, Figure 2. The class given is in vivo. The procedure:
as §1
• A) Adaptation: Starting from the second day after the animals arrived, they were conciliated by stroking and acclimated for seven consecutive days to reduce their stress response. • B) Behavioral test (FST test): Compound and Psilocybin groups (15 animals per group) continued to be housed for 7 days after dosing. On day 7, the Ketamine group (15 animals per group) was dosed 30 minutes before being placed, together with the compound and Psilocybin groups, into forced swim observation chambers for 6 minutes. Immobility time during the last 4 minutes was calculated. • C) Assay test indicator: Immobility time of animals during 2-6 minutes of the forced swim test.

Test [4] concerns the target T1, 5-HT2A receptor. The experiment in a line: 5-HT2AR calcium flux activation assay. It is filed as cell-based. Set-up: expressed in transfected cells; host or cells: HEK293. As to conditions: HEK293 cells stably expressing human 5-HT2A receptor. The method, then: • 1) For cultured cells (HEK293 cells stably expressing human 5-HT2A receptor), they were first washed twice with pre-warmed DPBS, then an appropriate amount of trypsin was added for digestion at 37°C for 1 minute; an appropriate amount of the culture medium was then added to stop digestion, and 1 mL was taken for counting and vitality determination using Vi-CELL™. • 2) Cells were centrifuged at 1000 rpm for 5 minutes. • 3) The supernatant was gently discarded, being careful not to disturb the cell pellet. • 4) Cells were diluted with the culture medium to 1×10^6 cells/mL (20,000 cells/20 µL) and seeded into 384-well poly-lysine coated cell plates. They were cultured at 37°C under 5% CO2 for 16-20 hours.
• 1) Preparation of 250 mM Probenecid solution: According to the kit instructions, 77 mg of probenecid was added to 1 mL of FLIPR buffer salt solution. Prepared fresh for immediate use. • 2) Preparation of Fluo-4 Direct™ (2×, 8 µM) loading buffer: According to the kit instructions, the required amount of Fluo-4 Direct™ was thawed in advance. 10 mL of FLIPR buffer salt solution and 0.2 mL of 250 mM Probenecid solution were added to each vial. It was vortexed in the dark for >5 minutes. Prepared fresh for immediate use.
• 1) Preparation of control and test compound plates: Compounds were gradient diluted to 10 points using Echo, and 750 nL was transferred to the corresponding compound plate. • 2) 30 µL of assay buffer salt solution was added to the corresponding compound plate, which was then centrifuged at 1000 rpm for 1 minute; • 3) The cell plate prepared the day before was taken from the incubator, and 20 µL of 2× Fluo-4 Direct™ buffer was added to each well, making a total volume of 40 µL. • 4) The plate was incubated in a 5% CO2, 37°C incubator for 50 minutes, then left at room temperature for 10 minutes. • 5) The compound plate, the cell plate, and pipette tips were placed into the instrument; • 6) The FLIPR instrument software was run according to the set program, adding 10 µL of the specified concentrations of test compounds and control compounds to the cell plate, and fluorescence signals were read. After reading, data was exported using the "Max-Min", "Read 1 to 90" method in the software. • 7) Data analysis: Agonist Activation% = (RLU−DMSO)/(HC−DMSO)*100 [formula] • RLU: Relative Light Units, read values 1 to 90; • HC: Average fluorescence signal of the highest concentration point of the agonist; • DMSO: Average fluorescence signal of the DMSO group; • 8) Data was fitted using Prism 5.0.
For agonist: EC50 was fitted using "log(agonist) vs. response -- Variable slope". Table 2: 5-HT2AR Calcium Flux Activation Assay

T1 sequence (P28223 whole entry): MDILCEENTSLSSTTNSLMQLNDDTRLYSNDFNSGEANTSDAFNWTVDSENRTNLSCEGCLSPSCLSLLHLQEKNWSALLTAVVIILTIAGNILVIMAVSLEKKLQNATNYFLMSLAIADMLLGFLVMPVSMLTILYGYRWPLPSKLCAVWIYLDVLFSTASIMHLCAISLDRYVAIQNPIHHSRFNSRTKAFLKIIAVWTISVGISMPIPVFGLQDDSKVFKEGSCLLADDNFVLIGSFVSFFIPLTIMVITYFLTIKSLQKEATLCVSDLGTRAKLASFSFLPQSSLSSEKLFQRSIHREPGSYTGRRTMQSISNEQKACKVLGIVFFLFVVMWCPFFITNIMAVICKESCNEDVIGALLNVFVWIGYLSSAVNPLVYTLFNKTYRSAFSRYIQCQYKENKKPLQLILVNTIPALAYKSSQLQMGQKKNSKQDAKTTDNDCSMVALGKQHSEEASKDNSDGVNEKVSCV

For `Oc1cccc2[nH]cc(C3CCN(CCCn4nccn4)C3)c12` (centres unmarked) [Compound 180, 3-(1-(3-(2H-1,2,3-triazol-2-yl)propyl)pyrrolidin-3-yl)-1H-indol-4-ol], the Ki at 5-HT2A receptor [1] is < 100 nM. In addition, the “Total number of head-twitches within 60 minutes after dosing” value in the test on Mice (strain C57BL/6) [2] is listed as “did not cause significant head-twitch behavior”. The “Immobility time of animals during 2-6 minutes of the forced swim test” value in the test on Mice (strain C57BL/6) [3] is given as “significantly reduced immobility time”. For the same molecule, the EC50 (usually the concentration that produces a half-maximal response) at 5-HT2A receptor [4] (FLIPR, Fluo-4, read-out: EC50) amounted to 9.95 nM. Further, on 5-HT2A receptor [4] (Max Dose 100000 nM), the Emax (usually the size of the effect at its maximum, as opposed to the concentration needed) is 59.3%.

The record behind these values is patent EP4752142A1, “5-HT2A RECEPTOR AGONIST, AND PREPARATION METHOD THEREFOR AND USE THEREOF” (Innovstone Therapeutics Limited, priority 2023, dated 2025).
